In PMC2074783, “Metabolism and pharmacokinetics of the anti-tumour agent 2,3,5-trimethyl-6-(3-pyridylmethyl)1,4-benzoquinone (CV-6504)” (British Journal of Cancer, 1996):
pIC50: −log10 of the molar value.

Columns and labels:
MAC13 cells = assay: Growth of MAC13 cells in vitro after 72 h; type: cell-based, murine; conditions: for Inhibition of the growth of MAC13 cells in vitro: concentrations up to 100 µM, 72 h
Description: (§1) Bridsh Journal of Cancer (1996) 74, 1349-1353 ? 1996 Stockton Press All rights reserved 0007-0920/96 $12.00 Metabolism and pharmacokinetics of the anti-tumour agent 2,3,5- trimethyl-6-(3-pyridylmethyl) 1,4-benzoquinone (CV-6504) H J Hussey and M J Tisdale Pharmaceutical Sciences Institute, Aston University, Birmingham B4 7ET, UK. Summary 2,3,5-Trimethyl-6-(3-pyridylmethyl)1,4-benzoquinone (CV-6504) is an effective inhibitor of the growth of established murine adenocarcinomas (MACs) and is shortly to enter clinical investigation. When administered to mice bearing the MAC16 tumour, CV-6504 rapidly disappeared from the plasma and tissues and there was an accumulation of the sulphate and glucuronide metabolites. […] The concentration of glucuronide and sulphate metabolites in both tumour and liver decreased with time. […] Although the sulphate and glucuronide conjugates of CV-6504 were ineffective inhibitors of the growth of MAC13 cells in vitro at concentrations up to 100 µM, in vivo at a concentration of 50 mg kg-' day-' the conjugates produced a similar anti-tumour effect to CV-6504 at a concentration of 5 mg kg-} day-l. […] Using MAC13 cells ex vivo, CV-6504 inhibited conversion of arachidonic acid to 5-, 12- and 15- hydroxyeicosatetraenoic acids (HETE). The percentage reduction in formation of 12- and 15-HETE exceeded that of 5-HETE. Inhibition of HETE formation may be responsible for the anti-tumour activity of CV-6504. […] Our own studies have identified the 5-lipoxygenase inhibitor (Ohkawa et al., 1991a), 2,3,5-trimethyl-6-(3-pyridyl- methyl)1,4-benzoquinone (CV-6504), as an effective inhibitor of the growth of established murine adenocarcinomas (MAC) in vivo with a therapeutic index of at least 10 (Hussey et al., 1996). […] CV-6504 undergoes rapid reduction by two-electron donating enzymes, such as DT-diaphorase, and the resulting hydroquinone inhibits both 5-lipoxygenase activity and lipid peroxidation on the basis of its antioxidant ability (Ohkawa et al., 199 lb) by reducing the ferric iron in the active site of the enzyme to the ferrous (resting state). Studies on the metabolism of CV-6504 by mice, rats, dogs and monkeys indicate reduction of the quinone ring and subsequent conjugation to yield the 1- and 4-glucuronides and the corresponding sulphates (Takeda Chemical Co., personal communication). […] In the present study the tumour and tissue levels of CV- Correspondence: HJ Hussey Received 4 March 1996; revised 21 May 1996; accepted 29 May 1996 6504 and its glucuronide and sulphate metabolites have been determined after single and consecutive dosing of mice bearing the MAC16 adenocarcinoma. A comparison has also been made between CV-6504 and its glucuronide and sulphate metabolites on tumour growth and metabolism of AA along the lipoxygenase pathways with a view to establishing the mechanism of the anti-tumour effect. Material and methods Pure strain NMRI mice were obtained from our own breeding colony and were fed a rat and mouse breeding diet (Pilsbury's, Birmingham) and water ad libitum. Male animals weighing 20-25 g were transplanted subcutaneously with 1-2 mm3 fragments of the MAC16 or MAC13 tumours by trocar into the right flank. The experiments were initiated when the tumour volume, calculated from the formula: length x (width)2 2 was between 72 and 128 mm3. Tumour dimensions were measured by calipers. […]

MAC13 tumour = assay: Growth of the MAC13 tumour in vivo; design: species or system NMRI mice; conditions: 50 mg kg-1 daily p.o.; for Anti-tumour activity in comparison with the 1-glucuronide and 4-sulphate: MAC13 tumour, difference not significant
Description: as §1, with “calipers. Mice bearing the MAC13 tumour were subject to restricted randomisation into groups of nine to receive either CV-6504 (5 mg kg-') or the 1- or 4- glucuronide, or the 1- or 4-sulphate (50 mg kg-'). CV-6504 and the sulphate and glucuronide metabolites were supplied by Takeda Chemical Industries Ltd., Osaka, Japan and were administered p.o. daily in aqueous solution (0.1 ml). Control animals received water alone (0.1 ml).” for “calipers.”

MAC16 cells = assay: Inhibition of the growth of MAC16 cells in vitro; type: cell-based, murine; conditions: Mus musculus, tissue culture
[1] = Metabolism and tissue levels of [14C]CV-6504 in mice bearing the MAC16 tumour; conditions: male, NMRI, mouse, in vivo, 24 h
Description: Bridsh Journal of Cancer (1996) 74, 1349-1353 ? 1996 Stockton Press All rights reserved 0007-0920/96 $12.00 Metabolism and pharmacokinetics of the anti-tumour agent 2,3,5- trimethyl-6-(3-pyridylmethyl) 1,4-benzoquinone (CV-6504) H J Hussey and M J Tisdale Pharmaceutical Sciences Institute, Aston University, Birmingham B4 7ET, UK. Summary 2,3,5-Trimethyl-6-(3-pyridylmethyl)1,4-benzoquinone (CV-6504) is an effective inhibitor of the growth of established murine adenocarcinomas (MACs) and is shortly to enter clinical investigation. When administered to mice bearing the MAC16 tumour, CV-6504 rapidly disappeared from the plasma and tissues and there was an accumulation of the sulphate and glucuronide metabolites. […] The concentration of glucuronide and sulphate metabolites in both tumour and liver decreased with time. […] In the present study the tumour and tissue levels of CV- Correspondence: HJ Hussey Received 4 March 1996; revised 21 May 1996; accepted 29 May 1996 6504 and its glucuronide and sulphate metabolites have been determined after single and consecutive dosing of mice bearing the MAC16 adenocarcinoma. […] The experiments were initiated when the tumour volume, calculated from the formula: length x (width)2 2 was between 72 and 128 mm3. Tumour dimensions were measured by calipers. […]

[2] = tested on: conversion of arachidonic acid to HETEs in MAC13 cells; assay: Lipoxygenase metabolites of arachidonate in MAC13 tumour cells ex vivo; type: cell-based, murine
Description: as §1, with “calipers. Mice bearing the MAC13 tumour were subject to restricted randomisation into groups of nine to receive either CV-6504 (5 mg kg-') or the 1- or 4- glucuronide, or the 1- or 4-sulphate (50 mg kg-'). CV-6504 and the sulphate and glucuronide metabolites were supplied by Takeda Chemical Industries Ltd., Osaka, Japan and were administered p.o. daily in aqueous solution (0.1 ml). Control animals received water alone (0.1 ml).” for “calipers.”

In the case of `Cc1c(C)c(OS(=O)(=O)O)c(C)c(Cc2cccnc2)c1O` [4-sulphate], the “Inhibition of the growth of MAC13 cells in vitro” value (“Inhibition” below) (MAC13 cells) was “ineffective” and the “Anti-tumour activity against MAC13 tumour in vivo compared with free CV-6504 at 5 mg kg-1 day-1 orally” value (MAC13 tumour) was “similar”.

In the case of `CC1=C(C)C(=O)C(Cc2cccnc2)=C(C)C1=O` [CV-6504, 2,3,5-Trimethyl-6-(3-pyridylmethyl)1,4-benzoquinone], the pIC50 (MAC16 cells) was 5.52, the pIC50 (MAC13 cells; Mus musculus, MAC13, 72 h, read-out: IC50 for inhibition of growth of MAC13 cells in vitro) was 5.52 and the “concentration of free CV-6504 in the liver” value [1] was 240 nM. The “concentration of free CV-6504 in the tumour” value [1] was 3300 nM, the “percentage reduction in formation of 12- and 15-HETE relative to that of 5-HETE” value ([2]; 10 µM, 30 min) was “exceeded” and the 5-HETE production ([2]; 10 µM, 30 min, [3H]AA) was “significantly decreased”. The 11-HETE production ([2]; 10 µM, 30 min, [3H]AA) was “significantly decreased”, the 12-HETE production ([2]; 10 µM, 30 min, [3H]AA) was “significantly decreased” and the 15-HETE production ([2]; 10 µM, 30 min, [3H]AA) was “significantly decreased”. For the same compound, the “total unmetabolised AA” value ([2]; 10 µM, 30 min, [3H]AA) was “significantly decreased”.

For `Cc1c(C)c(OC2OC(C(=O)O)C(O)C(O)C2O)c(Cc2cccnc2)c(C)c1O` (stereo not shown) [CV-6504-1-glucuronide], the “Inhibition” value (MAC13 cells) was “ineffective” and the “Anti-tumour activity against MAC13 tumour in vivo compared with free CV-6504 at 5 mg kg-1 day-1 orally” value (MAC13 tumour) was “similar”.

In the case of `Cc1c(C)c(OS(=O)(=O)O)c(Cc2cccnc2)c(C)c1O` [CV-6504-1-sulphate], the “Inhibition” value (MAC13 cells) was “ineffective”, the 12-HETE production ([2]; 100 µM, 30 min) was “significantly reduced” and the 15-HETE production ([2]; 100 µM, 30 min) was “significantly reduced”. The 11-HETE production ([2]; 100 µM, 1 h) was “significantly reduced”, the 5-HETE production ([2]; 100 µM, 2 h) was “significantly reduced” and the “Anti-tumour activity against MAC13 tumour in vivo compared with free CV-6504 at 5 mg kg-1 day-1 orally” value (MAC13 tumour) was “similar”. For the same compound, the “Anti-tumour activity in comparison with the 1-glucuronide and 4-sulphate” value (MAC13 tumour) was “slightly reduced”.

In the case of `Cc1c(C)c(OC2OC(C(=O)O)C(O)C(O)C2O)c(C)c(Cc2cccnc2)c1O` (stereo not shown) [CV-6504-4-glucuronide], the “Inhibition” value (MAC13 cells) was “ineffective”, the 5-HETE production ([2]; 100 µM, 30 min) was “significantly reduced” and the 11-HETE production ([2]; 100 µM, 30 min) was “significantly reduced”. For the same compound, the 12-HETE production ([2]; 100 µM, 30 min) was “significantly reduced”, the 15-HETE production ([2]; 100 µM, 1 h) was “significantly reduced” and the “Anti-tumour activity against MAC13 tumour in vivo compared with free CV-6504 at 5 mg kg-1 day-1 orally” value (MAC13 tumour) was “similar”. The “Anti-tumour activity in comparison with the 1-glucuronide and 4-sulphate” value (MAC13 tumour) was “slightly reduced”.
